Experimental findings from US11371055B2, “Herbicide resistance genes” (CORTEVA AGRISCIENCE LLC, priority 2005, dated 2022) are described below.

The structures appear in SMILES notation.

The test system of one experiment is wildtype KY160 tobacco. Briefly: Cross tolerance test, wildtype tobacco. The format is in vivo, Nicotiana tabacum. The source says: Two to four T0 individuals surviving high rates of 2,4-D and fluroxypyr were saved from each event and allowed to self fertilize in the greenhouse to give rise to T1 seed. The T1 seed was stratified, and sown into selection trays much like that of Arabidopsis (Example 7.4), followed by selective removal of untransformed nulls in this segregating population with 560 g ai/ha glufosinate (PAT gene selection). Survivors were transferred to individual 3-inch pots in the greenhouse. These lines provided high levels of resistance to 2,4-D in the T0 generation. Improved consistency of response is anticipated in T1 plants not having come directly from tissue culture. These plants were compared against wildtype KY160 tobacco. All plants were sprayed with a track sprayer set at 187 L/ha. The plants were sprayed from a range of 140-2240 g ac/ha 2,4-D dimethylamine salt (DMA), 70-1120 g ace/ha triclopyr or 35-560 g ae/ha fluroxypyr. All applications were formulated in water. Each treatment was replicated 2-4 times. Plants were evaluated at 3 and 14 days after treatment. Plants were assigned injury rating with respect to stunting, chlorosis, and necrosis. The T1 generation is segregating, so some variable response is expected due to difference in zygosity.

The test system of experiment [1] is AAD-12 (v1) tobacco lines (pDAS1580-[1]-018.001, pDAS1580-[1]-004.001, pDAS1580-[1]-020.016). Briefly: Field tolerance of tobacco, AAD-12 lines. The format is in vivo, Nicotiana tabacum. The procedure:
(§1) Field level tolerance trials were conducted on three AAD-12 (v1) lines (events pDAS1580-[1]-018.001, pDAS1580-[1]-004.001 and pDAS1580-[1]-020.016) and one wild-type line (KY160) at field stations in Indiana and Mississippi. Tobacco transplants were grown in the greenhouse by planting T1 seed in 72 well transplant flats (Hummert International) containing Metro 360 media according to growing conditions indicated above. The null plants were selectively removed by Liberty selection as previously described. The transplant plants were transported to the field stations and planted at either 14 or 24 inches apart using industrial vegetable planters. Drip irrigation at the Mississippi site and overhead irrigation at the Indiana site were used to keep plants growing vigorously.
(§2) The experimental design was a split plot design with 4 replications. The main plot was herbicide treatment and the sub-plot was tobacco line. The herbicide treatments were 2,4-D (dimethylamine salt) at 280, 560, 1120, 2240 and 4480 g ac/ha, triclopyr at 840 g ae/ha, fluroxypyr at 280 g ac/ha and an untreated control. Plots were one row by 25-30 ft. Herbicide treatments were applied 3-4 weeks after transplanting using compressed air backpack sprayer delivering 187 L/ha carrier volume at 130-200 kpa pressure. Visual rating of injury, growth inhibition, and epinasty were taken at 7, 14 and 21 days after treatment.

Experiment [2] relates to wild-type tobacco line (KY160). Briefly: Field tolerance of tobacco, wild-type line. It is filed as in vivo, Nicotiana tabacum. The following applies: for injury: 14 DAT; for Average % Injury across locations at 14 DAT: Wild type. The procedure: as §1, §2
Experiment [3] deals with AAD-12 (v1) (pDAS1580) T2 tobacco plants. Briefly: Auxinic herbicide cross tolerance of stacked tobacco, AAD-12 T2. The format is in vivo, Nicotiana tabacum. The method, then: (§3) Homozygous AAD-12 (v1) (pDAS1580) and AAD-1 (v3) (pDAB721) plants (see PCT/US2005/014737 for the latter) were both reciprocally crossed and F1 seed was collected. The F1 seed from two reciprocal crosses of each gene were stratified and treated 4 reps of each cross were treated under the same spray regimen as used for the other testing with one of the following treatments: 70, 140, 280 g ac/ha fluroxypyr (selective for the AAD-12 (v1) gene); 280, 560, 1120 g ae/ha R-dichloroprop (selective for the AAD-1 (v3) gene); or 560, 1120, 2240 g ae/ha 2,4-D DMA (to confirm 2,4-D tolerance). Homozygous T2 plants of each gene were also planted for use as controls. Plants were graded at 3 and 14 DAT.

Experiment [4] concerns AAD-1 (v3) (pDAB721) T2 tobacco plants. Briefly: Auxinic herbicide cross tolerance of stacked tobacco, AAD-1 T2. The format is in vivo, Nicotiana tabacum. The procedure: as §3
Experiment [5] deals with AAD-12 x AAD-1 F1 cross tobacco. Briefly: Auxinic herbicide cross tolerance of stacked tobacco, F1 cross. It is filed as in vivo, Nicotiana tabacum. The following applies: AAD-12 (v1) x AAD (v3) F1. The method, then:
as §3

Experiment [6] concerns AAD-12 (v1) canola events 3759(20)018.001 and 3759(18)030.001. Briefly: Field tolerance of canola, AAD-12 events. The format is in vivo, Brassica napus. The conditions noted are these: for average injury: 14DAT. The procedure: Field level tolerance trial was conducted on two AAD-12 (v1) events 3759(20)018.001 and 3759(18)030.001 and a wild-type canola (Nex710) in Fowler, Ind. The experimental design was a randomized complete block design with 3 replications. Herbicide treatments were 2,4-D (dimethylamine salt) at 280, 560, 1120, 2240 and 4480 g ac/ha, triclopyr at 840 g ae/ha, fluroxypyr at 280 g ae/ha and an untreated control. Within each herbicide treatment, single 20 ft row/event for event 3759(18)030.0011, 3759(18)018.001 and wild-type line (Nex710) were planted with a 4 row drill on 8 inch row spacing. Herbicide treatments were applied when canola reached the 4-6 leaf stage using compressed air backpack sprayer delivering 187 L/ha carrier volume at 130-200 kpa pressure. […]

[7] abbreviates: 2× rate of triclopyr (840 g ae/ha), 14 DAT.

On to `CNC.O=C(O)COc1ccc(Cl)cc1Cl` [2,4-D DMA], for which the “Average % Injury of Replicates 14 DAT” value in the experiment on wildtype KY160 tobacco (140 g ae/ha) stood at 45%; in the experiment on wildtype KY160 tobacco (560 g ae/ha), 60%; in the experiment with wildtype KY160 tobacco (2240 g ae/ha) it was 73%.
For the molecule `O=C(O)COc1ccc(Cl)cc1Cl` [2,4-D, 2,4-dichlorophenoxyacetic acid], the average injury in experiment [1] (2,4-D at the 2× rate, 14DAT) came out at 1%; in experiment [1] (2,4-D at the 4× rate, 14DAT) it was 4%; in experiment [1] (2,4-D at the 8× rate, 14 DAT), 4%; in experiment [6] (2,4-D at the 1× rate), 2%; in experiment [6] (2,4-D at the 2× rate), 3%; in experiment [6] (2,4-D at the 4× rate) it was 2%. Further, the “Average % Injury across locations at 14 DAT” value in experiment [1] (pDAS1580-[1]-004.001, 280 GM AE/HA) turned out to be 0%; in experiment [1] (pDAS1580-[1]-004.001, 560 GM AE/HA), 0%; in experiment [1] (pDAS1580-[1]-004.001, 1120 GM AE/HA), 1%; in experiment [1] (pDAS1580-[1]-004.001, 2240 GM AE/HA), 4%; in experiment [1] (pDAS1580-[1]-004.001, 4480 GM AE/HA), 4%; in experiment [1] (pDAS1580-[1]-018.001, 280 GM AE/HA), 0%. Besides, the “Average % Injury across locations at 14 DAT” value came out at 2% in experiment [1] (pDAS1580-[1]-018.001, 560 GM AE/HA); 2% in experiment [1] (pDAS1580-[1]-018.001, 1120 GM AE/HA); 4% in experiment [1] (pDAS1580-[1]-018.001, 2240 GM AE/HA); 4% in experiment [1] (pDAS1580-[1]-018.001, 4480 GM AE/HA); 0% in experiment [1] (pDAS1580-[1]-020.016, 280 GM AE/HA); 0% in experiment [1] (pDAS1580-[1]-020.016, 560 GM AE/HA). The “Average % Injury across locations at 14 DAT” value in experiment [1] (pDAS1580-[1]-020.016, 1120 GM AE/HA) is 1%; in experiment [1] (pDAS1580-[1]-020.016, 2240 GM AE/HA) it was 4%; in experiment [1] (pDAS1580-[1]-020.016, 4480 GM AE/HA), 4%; in experiment [2] (280 GM AE/HA), 48%; in experiment [2] (560 GM AE/HA), 63%; in experiment [2] (1120 GM AE/HA), 78%. Also, the “Average % Injury across locations at 14 DAT” value in experiment [2] (2240 GM AE/HA) is on record as 87%; in experiment [2] (4480 GM AE/HA), 92%. The same molecule registered an injury in experiment [2] (2,4-D at 560 g ae/ha (1× field application rate)) of 63%. Moreover, the “Average % injury 14 DAT” value is listed as 0% in experiment [3] (560 g ae/ha); 0% in experiment [3] (1120 g ae/ha); 0% in experiment [3] (2240 g ae/ha); 0% in experiment [4] (560 g ae/ha); 4% in experiment [4] (1120 g ae/ha); 9% in experiment [4] (2240 g ae/ha). Also, the “Average % injury 14 DAT” value in experiment [5] (560 g ae/ha), in experiment [5] (1120 g ae/ha) and in experiment [5] (2240 g ae/ha) was 0% each time. In addition, the “% Visual Injury at 14 DAT” value was 0 b % in experiment [6] (AAD-12 event 3759(18)030.001, 280 GM AE/HA); 0 b % in experiment [6] (AAD-12 event 3759(18)030.001, 560 GM AE/HA); 2 ab % in experiment [6] (AAD-12 event 3759(18)030.001, 1120 GM AE/HA); 3 ab % in experiment [6] (AAD-12 event 3759(18)030.001, 2240 GM AE/HA); 0 a % in experiment [6] (AAD-12 event 3759(20)018.001, 280 GM AE/HA); 0 a % in experiment [6] (AAD-12 event 3759(20)018.001, 560 GM AE/HA). Also, the “% Visual Injury at 14 DAT” value amounted to 2 a % in experiment [6] (AAD-12 event 3759(20)018.001, 1120 GM AE/HA) and 3 a % in experiment [6] (AAD-12 event 3759(20)018.001, 2240 GM AE/HA).
Turning to `C[C@@H](Oc1ccc(Cl)cc1Cl)C(=O)O` [(R)-dichlorprop, R-2,4-dichlorophenoxypropionic acid], the “Average % injury 14 DAT” value is listed as 15% in experiment [3] (280 g ae/ha); 50% in experiment [3] (560 g ae/ha); 70% in experiment [3] (1120 g ae/ha); 0% in experiment [4] (280 g ae/ha); 0% in experiment [4] (560 g ae/ha); 3% in experiment [4] (1120 g ae/ha). The “Average % injury 14 DAT” value in experiment [5] (280 g ae/ha), in experiment [5] (560 g ae/ha) and in experiment [5] (1120 g ae/ha) was 0% throughout.
As for `O=C(O)COc1nc(Cl)c(Cl)cc1Cl` [triclopyr], the “Average % Injury of Replicates 14 DAT” value stood at 40% in the experiment on wildtype KY160 tobacco (70 g ae/ha), 65% with wildtype KY160 tobacco (280 g ae/ha) and 80% in the experiment with wildtype KY160 tobacco (1120 g ae/ha). In addition, the “average injury across the three lines” value in experiment [1] (setting [7]) is 5%. Moreover, the “Average % Injury across locations at 14 DAT” value is 5% in experiment [1] (pDAS1580-[1]-004.001, 840 GM AE/HA); 4% in experiment [1] (pDAS1580-[1]-018.001, 840 GM AE/HA); 5% in experiment [1] (pDAS1580-[1]-020.016, 840 GM AE/HA); 53% in experiment [2] (840 GM AE/HA). The injury in experiment [2] (2× rate of triclopyr (840 g ae/ha)) came to 53%. In addition, the “average injury across the two events” value in experiment [6] (setting [7]) came to 6%. In addition, the “% Visual Injury at 14 DAT” value in experiment [6] (AAD-12 event 3759(18)030.001, 840 GM AE/HA) was found to be 6 ab %; in experiment [6] (AAD-12 event 3759(20)018.001, 840 GM AE/HA), 6 a %.
